Patent US20260022142A1, “MACROCYCLIC IMMUNOMODULATORS” (Bristol-Myers Squibb Company, priority 2022, published 2026)
Bridge positions count the residues as written; N and C are the ends. Square brackets hold non-standard residues; d marks the D form. Peptide text beside a SMILES is read from it. * marks the point of attachment. ξ: configuration not given here. Phe(4-COOH) = N[C@@H](Cc1ccc(C(=O)O)cc1)C(=O)O; Bip = N[C@@H](Cc1ccc(-c2ccccc2)cc1)C(=O)O; Phe(4-CN) = N#Cc1ccc(C[C@H](N)C(=O)O)cc1; Phe(3-Me) = Cc1cccc(C[C@H](N)C(=O)O)c1; Phe(4-F) = N[C@@H](Cc1ccc(F)cc1)C(=O)O; Val(3-OH) = CC(C)(O)[C@H](N)C(=O)O; 4Pal = N[C@@H](Cc1ccncc1)C(=O)O; Cha = N[C@@H](CC1CCCCC1)C(=O)O; Thr(3ξ) = CC(O)[C@H](N)C(=O)O; dDab = NCC[C@@H](N)C(=O)O; Carboxymethyl = O=C(O)C*; Orn = NCCC[C@H](N)C(=O)O; Aun = NCCCCCCCCCCC(=O)O; Dab = NCC[C@H](N)C(=O)O; AEEA = NCCOCCOCC(=O)O

Biological target: T1, PD-1/PD-L1 interaction (PE-labeled human PD-L1-Ig binding to Jurkat cell line over-expressing human PD-1) (Homo sapiens, UniProt Q15116)
T1 construct: expressed in transfected cells; host or cells: Jurkat
T1 sequence (Q15116 25-288): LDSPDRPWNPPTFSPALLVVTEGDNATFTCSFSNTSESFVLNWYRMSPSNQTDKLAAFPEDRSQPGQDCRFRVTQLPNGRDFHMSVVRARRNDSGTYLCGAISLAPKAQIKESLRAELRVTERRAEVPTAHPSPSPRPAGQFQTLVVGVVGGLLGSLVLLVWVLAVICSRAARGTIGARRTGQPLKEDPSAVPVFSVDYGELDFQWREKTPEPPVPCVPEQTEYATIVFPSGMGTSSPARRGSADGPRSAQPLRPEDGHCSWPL
Experiment: Jurkat-PD-1 Cell Binding High-Content Screening Assay (CBA)
Assay type: cell-based
Conditions: Jurkat cell line over-expressing human PD-1; PE-labeled PD-L1-Ig 20 nM final; read-out: Jurkat hPD1-PDL1 IC50
In short: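 Human PD-L1-Ig carrying a covalent PE label on its Ig tag serves as the probe, applied at 20 nM final to compound-treated (2 h, 37° C) Jurkat-hPD-1 cells in medium with 10% fetal calf serum. After one hour, fixation and nuclear staining precede high-content image analysis.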

IC50	Compound
238 nM	Cc1cccc(C[C@@H]2NC(=O)[C@H](CC(=O)O)NC(=O)[C@H](Cc3ccc(C(=O)O)cc3)NC(=O)[C@H](Cc3ccncc3)NC(=O)CSC[C@@H](C(=O)N[C@@H](CCN)C(=O)NCCOCCOCC(=O)NCCOCCOCC(=O)NCCCCCCCCCCC(=O)O)NC(=O)[C@H](CCC(=O)O)NC(=O)[C@H](C(C)(C)O)NC(=O)[C@H](CC3CCCCC3)NC(=O)[C@H](CCN)NC(=O)[C@@H](CC(C)C)NC(=O)[C@H](CCCN)NC(=O)[C@H](Cc3ccc(C(=O)O)cc3)NC(=O)[C@H](Cc3ccc(-c4ccccc4)cc3)NC(=O)[C@H](Cc3ccc(C(=O)O)cc3)NC2=O)c1 [Compound 3764] ({CH2CO}-[4Pal][Phe(4-COOH)]D[Phe(3-Me)][Phe(4-COOH)][Bip][Phe(4-COOH)][Orn][dL][Dab][Cha][Val(3-OH)]EC[Dab][AEEA][AEEA][Aun]-OH; thioether N-14)
344 nM	Cc1cccc(C[C@@H]2NC(=O)[C@H](CC(=O)O)NC(=O)[C@H](Cc3ccc(C(=O)O)cc3)NC(=O)[C@H](Cc3ccncc3)NC(=O)CSC[C@@H](C(=O)N[C@@H](CCN)C(=O)NCCOCCOCC(=O)NCCOCCOCC(=O)NCCCCCCCCCCC(=O)O)NC(=O)[C@H](CCC(=O)O)NC(=O)[C@H](C(C)C)NC(=O)[C@H](CC3CCCCC3)NC(=O)[C@H](CCN)NC(=O)[C@@H](CC(C)C)NC(=O)[C@H](CCCN)NC(=O)[C@H](Cc3ccc(C(=O)O)cc3)NC(=O)[C@H](Cc3ccc(-c4ccccc4)cc3)NC(=O)[C@H](Cc3ccc(C(=O)O)cc3)NC2=O)c1 [Compound 3765] ({CH2CO}-[4Pal][Phe(4-COOH)]D[Phe(3-Me)][Phe(4-COOH)][Bip][Phe(4-COOH)][Orn][dL][Dab][Cha]VEC[Dab][AEEA][AEEA][Aun]-OH; thioether N-14)
31.2 nM	Cc1cccc(C[C@@H]2NC(=O)[C@H](CC(=O)O)NC(=O)[C@H](Cc3ccc(OCC(=O)O)cc3)NC(=O)[C@H](Cc3ccncc3)NC(=O)CSC[C@@H](C(=O)N[C@@H](CCN)C(=O)NCCOCCOCC(=O)NCCOCCOCC(=O)NCCCCCCCCCCC(=O)O)NC(=O)[C@H](Cc3cnc[nH]3)NC(=O)[C@H](C(C)C)NC(=O)[C@H](CC3CCCCC3)NC(=O)[C@H](CCN)NC(=O)[C@@H](CC(C)C)NC(=O)[C@H](CCCN)NC(=O)[C@H](Cc3ccc(C(=O)O)cc3)NC(=O)[C@H](Cc3ccc(-c4ccccc4)cc3)NC(=O)[C@H](Cc3ccc(C(=O)O)cc3)NC2=O)c1 [Compound 3766] ({CH2CO}-[4Pal]Y(Carboxymethyl)D[Phe(3-Me)][Phe(4-COOH)][Bip][Phe(4-COOH)][Orn][dL][Dab][Cha]VHC[Dab][AEEA][AEEA][Aun]-OH; thioether N-14)
9.6 nM	Cc1cccc(C[C@@H]2NC(=O)[C@H](CC(=O)O)NC(=O)[C@H](Cc3ccc(OCC(=O)O)cc3)NC(=O)[C@H](Cc3ccc(F)cc3)NC(=O)CSC[C@@H](C(=O)N[C@@H](CCN)C(=O)NCCOCCOCC(=O)NCCOCCOCC(=O)NCCCCCCCCCCC(=O)O)NC(=O)[C@H](Cc3cnc[nH]3)NC(=O)[C@H](C(C)(C)O)NC(=O)[C@H](CC3CCCCC3)NC(=O)[C@H](CCN)NC(=O)[C@@H](CC(C)C)NC(=O)[C@H](CCCN)NC(=O)[C@H](Cc3ccc(C(=O)O)cc3)NC(=O)[C@H](Cc3ccc(-c4ccccc4)cc3)NC(=O)[C@H](Cc3ccc(C(=O)O)cc3)NC2=O)c1 [Compound 3767] ({CH2CO}-[Phe(4-F)]Y(Carboxymethyl)D[Phe(3-Me)][Phe(4-COOH)][Bip][Phe(4-COOH)][Orn][dL][Dab][Cha][Val(3-OH)]HC[Dab][AEEA][AEEA][Aun]-OH; thioether N-14)
6.5 nM	Cc1cccc(C[C@@H]2NC(=O)[C@H](CC(=O)O)NC(=O)[C@H](Cc3ccc(OCC(=O)O)cc3)NC(=O)[C@H](Cc3ccc(F)cc3)NC(=O)CSC[C@@H](C(=O)N[C@@H](CCN)C(=O)NCCOCCOCC(=O)NCCOCCOCC(=O)NCCCCCCCCCCC(=O)O)NC(=O)[C@H](CCC(=O)O)NC(=O)[C@H](C(C)(C)O)NC(=O)[C@H](CC3CCCCC3)NC(=O)[C@H](CCN)NC(=O)[C@@H](CC(C)C)NC(=O)[C@H](CCCN)NC(=O)[C@H](Cc3ccc(C(=O)O)cc3)NC(=O)[C@H](Cc3ccc(-c4ccccc4)cc3)NC(=O)[C@H](Cc3ccc(C(=O)O)cc3)NC2=O)c1 [Compound 3768] ({CH2CO}-[Phe(4-F)]Y(Carboxymethyl)D[Phe(3-Me)][Phe(4-COOH)][Bip][Phe(4-COOH)][Orn][dL][Dab][Cha][Val(3-OH)]EC[Dab][AEEA][AEEA][Aun]-OH; thioether N-14)
3.5 nM	Cc1cccc(C[C@@H]2NC(=O)[C@H](CC(=O)O)NC(=O)[C@H](Cc3ccc(OCC(=O)O)cc3)NC(=O)[C@H](C)NC(=O)CSC[C@@H](C(=O)N[C@@H](CCN)C(=O)NCCOCCOCC(=O)NCCCCCCCCCCC(=O)O)NC(=O)[C@H](CO)NC(=O)[C@H](C(C)(C)O)NC(=O)[C@H](CC3CCCCC3)NC(=O)[C@H](CCN)NC(=O)[C@@H](CC(C)C)NC(=O)[C@H](CCCN)NC(=O)[C@H](Cc3ccc(C(=O)O)cc3)NC(=O)[C@H](Cc3ccc(-c4ccccc4)cc3)NC(=O)[C@H](Cc3ccc(C(=O)O)cc3)NC2=O)c1 [Compound 3769] ({CH2CO}-AY(Carboxymethyl)D[Phe(3-Me)][Phe(4-COOH)][Bip][Phe(4-COOH)][Orn][dL][Dab][Cha][Val(3-OH)]SC[Dab][AEEA][Aun]-OH; thioether N-14)
239 nM	Cc1cccc(C[C@@H]2NC(=O)[C@H](CC(=O)O)NC(=O)[C@H](Cc3ccc(OCC(=O)O)cc3)NC(=O)[C@@H](CCN)NC(=O)CSC[C@@H](C(=O)N[C@@H](CCN)C(=O)NCCCCCCCCCCC(=O)O)NC(=O)[C@H](Cc3cnc[nH]3)NC(=O)[C@H](C(C)(C)O)NC(=O)[C@H](CC3CCCCC3)NC(=O)[C@H](CCN)NC(=O)[C@@H](CC(C)C)NC(=O)[C@H](CCCN)NC(=O)[C@H](Cc3ccc(C(=O)O)cc3)NC(=O)[C@H](Cc3ccc(-c4ccccc4)cc3)NC(=O)[C@H](Cc3ccc(C(=O)O)cc3)NC2=O)c1 [Compound 3770] ({CH2CO}-[dDab]Y(Carboxymethyl)D[Phe(3-Me)][Phe(4-COOH)][Bip][Phe(4-COOH)][Orn][dL][Dab][Cha][Val(3-OH)]HC[Dab][Aun]-OH; thioether N-14)
4.7 nM	Cc1cccc(C[C@@H]2NC(=O)[C@H](CC(=O)O)NC(=O)[C@H](Cc3ccc(OCC(=O)O)cc3)NC(=O)[C@H](CCN)NC(=O)CSC[C@@H](C(=O)N[C@@H](CCN)C(=O)NCCOCCOCC(=O)NCCOCCOCC(=O)NCCOCCOCC(=O)NCCCCCCCCCCC(=O)O)NC(=O)[C@H](CCC(=O)O)NC(=O)[C@H](C(C)(C)O)NC(=O)[C@H](CC3CCCCC3)NC(=O)[C@H](CCN)NC(=O)[C@@H](CC(C)C)NC(=O)[C@H](CCCN)NC(=O)[C@H](Cc3ccc(OCC(=O)O)cc3)NC(=O)[C@H](Cc3ccc(-c4ccccc4)cc3)NC(=O)[C@H](Cc3ccc(OCC(=O)O)cc3)NC2=O)c1 [Compound 3771] ({CH2CO}-[Dab]Y(Carboxymethyl)D[Phe(3-Me)]Y(Carboxymethyl)[Bip]Y(Carboxymethyl)[Orn][dL][Dab][Cha][Val(3-OH)]EC[Dab][AEEA][AEEA][AEEA][Aun]-OH; thioether N-14)
2.6 nM	Cc1cccc(C[C@@H]2NC(=O)[C@H](CC(=O)O)NC(=O)[C@H](Cc3ccc(OCC(=O)O)cc3)NC(=O)[C@H](CCN)NC(=O)CSC[C@@H](C(=O)N[C@@H](CCN)C(=O)NCCOCCOCC(=O)NCCOCCOCC(=O)NCCOCCOCC(=O)NCCCCCCCCCCC(=O)O)NC(=O)[C@H](Cc3cnc[nH]3)NC(=O)[C@H](C(C)(C)O)NC(=O)[C@H](CC3CCCCC3)NC(=O)[C@H](CCN)NC(=O)[C@@H](CC(C)C)NC(=O)[C@H](CCCN)NC(=O)[C@H](Cc3ccc(C(=O)O)cc3)NC(=O)[C@H](Cc3ccc(-c4ccccc4)cc3)NC(=O)[C@H](Cc3ccc(C(=O)O)cc3)NC2=O)c1 [Compound 3772] ({CH2CO}-[Dab]Y(Carboxymethyl)D[Phe(3-Me)][Phe(4-COOH)][Bip][Phe(4-COOH)][Orn][dL][Dab][Cha][Val(3-OH)]HC[Dab][AEEA][AEEA][AEEA][Aun]-OH; thioether N-14)
1 nM	Cc1cccc(C[C@@H]2NC(=O)[C@H](CC(=O)O)NC(=O)[C@H](Cc3ccc(C#N)cc3)NC(=O)[C@H](C(C)O)NC(=O)CSC[C@@H](C(=O)N[C@@H](CCN)C(=O)NCCOCCOCC(=O)NCCOCCOCC(=O)NCCCCCCCCCCC(=O)O)NC(=O)[C@H](Cc3cnc[nH]3)NC(=O)[C@H](C(C)(C)O)NC(=O)[C@H](CC3CCCCC3)NC(=O)[C@H](CCN)NC(=O)[C@@H](CC(C)C)NC(=O)[C@H](CCCN)NC(=O)[C@H](Cc3ccc(OCC(=O)O)cc3)NC(=O)[C@H](Cc3ccc(-c4ccccc4)cc3)NC(=O)[C@H](Cc3ccc(OCC(=O)O)cc3)NC2=O)c1 (stereo partly drawn) [Compound 3773] ({CH2CO}-[Thr(3ξ)][Phe(4-CN)]D[Phe(3-Me)]Y(Carboxymethyl)[Bip]Y(Carboxymethyl)[Orn][dL][Dab][Cha][Val(3-OH)]HC[Dab][AEEA][AEEA][Aun]-OH; thioether N-14)
6.3 nM	Cc1cccc(C[C@@H]2NC(=O)[C@H](CC(=O)O)NC(=O)[C@H](Cc3ccc(C#N)cc3)NC(=O)[C@H](C(C)O)NC(=O)CSC[C@@H](C(=O)N[C@@H](CCN)C(=O)NCCOCCOCC(=O)NCCOCCOCC(=O)NCCCCCCCCCCC(=O)O)NC(=O)[C@H](Cc3cnc[nH]3)NC(=O)[C@H](C(C)O)NC(=O)[C@H](CC3CCCCC3)NC(=O)[C@H](CCN)NC(=O)[C@@H](CC(C)C)NC(=O)[C@H](CCCN)NC(=O)[C@H](Cc3ccc(OCC(=O)O)cc3)NC(=O)[C@H](Cc3ccc(-c4ccccc4)cc3)NC(=O)[C@H](Cc3ccc(OCC(=O)O)cc3)NC2=O)c1 (stereo partly drawn) [Compound 3774] ({CH2CO}-[Thr(3ξ)][Phe(4-CN)]D[Phe(3-Me)]Y(Carboxymethyl)[Bip]Y(Carboxymethyl)[Orn][dL][Dab][Cha][Thr(3ξ)]HC[Dab][AEEA][AEEA][Aun]-OH; thioether N-14)
